Molecules are shown by their SMILES.

The values that follow come from patent publication US12037345B2, “Heterobicyclic compounds for inhibiting the activity of SHP2” (TAIHO PHARMACEUTICAL CO., LTD., priority 2018, dated 2024).

The target in one assay is SHP2 (Homo sapiens (Human), UniProt Q06124). The assay can be described thus: SHP2 Biochemical Assay (DiFMUP conversion, pIRS1-activated). The conditions noted are these: Table 19; head prints unit as "-M". The gist of the method: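 Rates of DiFMU formation were followed 30 min at ex 360/em 450 nm, with 50 μM DiFMUP, 10 pM SHP2 and pIRS1 peptide ([…]) after 30 min compound pre-incubation at pH 7.0 Bis-Tris propane. Four-parameter logistic IC50s in singlicate; repeat runs averaged.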
Chain of SHP2 (Q06124 whole entry): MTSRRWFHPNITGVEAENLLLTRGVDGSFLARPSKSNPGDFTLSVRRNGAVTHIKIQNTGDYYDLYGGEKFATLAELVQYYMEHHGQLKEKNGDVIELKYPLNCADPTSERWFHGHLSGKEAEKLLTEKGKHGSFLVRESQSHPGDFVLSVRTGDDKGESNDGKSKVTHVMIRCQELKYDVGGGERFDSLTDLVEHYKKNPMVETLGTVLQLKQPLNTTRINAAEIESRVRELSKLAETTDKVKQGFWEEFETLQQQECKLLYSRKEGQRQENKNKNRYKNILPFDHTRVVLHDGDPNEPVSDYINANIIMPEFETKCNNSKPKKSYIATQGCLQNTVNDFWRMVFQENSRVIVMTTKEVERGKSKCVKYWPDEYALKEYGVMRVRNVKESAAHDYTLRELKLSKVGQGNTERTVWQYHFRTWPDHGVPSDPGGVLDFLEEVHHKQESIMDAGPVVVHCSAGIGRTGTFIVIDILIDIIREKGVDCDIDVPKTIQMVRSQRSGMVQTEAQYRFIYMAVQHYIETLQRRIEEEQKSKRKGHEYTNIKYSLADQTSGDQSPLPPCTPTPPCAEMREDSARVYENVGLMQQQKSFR

The subject of assay [1] is pERK (phospho-p44/42 ERK) in HCC827 cells. The assay can be described thus: Cellular pERK Inhibition Assay, Method A (In-Cell Western). Format: cell-based. As to conditions: Homo sapiens, Table 19, head prints unit as "-M", read-out: pERK (IC50) Method A. The procedure, abridged: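 In-Cell Western: phospho-p44/42 ERK antibody staining of formalin-fixed HCC827 cells after compound exposure (serum-free medium, 0.2% DMSO, 37 °C, indicated time). Readings minus cell-free blanks were normalised to DMSO-treated wells. Relative IC50 came from four-parameter logistic fits of quadruplicates, given as single or mean values.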

For the molecule `Cn1nc2ccc(-c3c[nH]c4nc(N5C6CCCC5CNC6)n(C)c(=O)c34)c(F)c2c1Cl` [Example 100, 2-(3,9-diazabicyclo[3.3.1]nonan-9-yl)-5-(3-chloro-4-fluoro-2-methyl-2H-indazol-5-yl)-3-methyl-3,7-dihydro-4H-pyrrolo[2,3-d]pyrimidin-4-one], the IC50 against SHP2 was determined as 6 nM; in assay [1], 95 nM.

For `CCn1nc2ccc(-c3c[nH]c4nc(N5[C@H]6CC[C@@H]5[C@H](N)C6)n(C)c(=O)c34)c(Cl)c2c1OC` [Example 102, 2-((1R,2R,4S)-2-amino-7-azabicyclo[2.2.1]heptan-7-yl)-5-(4-chloro-2-ethyl-3-methoxy-2H-indazol-5-yl)-3-methyl-3,7-dihydro-4H-pyrrolo[2,3-d]pyrimidin-4-one], the half-inhibitory concentration (IC50) amounted to 9 nM against SHP2 and 88 nM in assay [1].

Consider `Cn1c(N2[C@H]3CC[C@@H]2[C@H](N)C3)nc2[nH]cc(-c3ccc4nn(CF)c(Cl)c4c3Cl)c2c1=O` [Example 103, 2-((1R,2R,4S)-2-amino-7-azabicyclo[2.2.1]heptan-7-yl)-5-(3,4-dichloro-2-(fluoromethyl)-2H-indazol-5-yl)-3-methyl-3,7-dihydro-4H-pyrrolo[2,3-d]pyrimidin-4-one], for which the IC50 on SHP2 stood at 2 nM; in assay [1], 26 nM.

With `CN[C@@H]1C[C@@H]2CC[C@H]1N2c1nc2[nH]cc(-c3ccc4nn(C)c(Cl)c4c3Cl)c2c(=O)n1C` [Example 104, 5-(3,4-dichloro-2-methyl-2H-indazol-5-yl)-3-methyl-2-((1R,2R,4S)-2-(methylamino)-7-azabicyclo[2.2.1]heptan-7-yl)-3,7-dihydro-4H-pyrrolo[2,3-d]pyrimidin-4-one], the IC50 against SHP2 was determined as 2.7 nM; in assay [1], 84 nM.

Regarding `CN[C@@H]1C[C@@H]2CC[C@H]1N2c1nc2[nH]cc(-c3ccc4ncsc4c3Cl)c2c(=O)n1C` [Example 105, 5-(7-chlorobenzo[d]thiazol-6-yl)-3-methyl-2-((1R,2R,4S)-2-(methylamino)-7-azabicyclo[2.2.1]heptan-7-yl)-3,7-dihydro-4H-pyrrolo[2,3-d]pyrimidin-4-one], the IC50 is 5 nM against SHP2 and 160 nM in assay [1].

As to `CN[C@@H]1C[C@@H]2CC[C@H]1N2c1nc2[nH]cc(-c3ccc4nn(C)c(Cl)c4c3F)c2c(=O)n1C` [Example 106, 5-(3-chloro-4-fluoro-2-methyl-2H-indazol-5-yl)-3-methyl-2-((1R,2R,4S)-2-(methylamino)-7-azabicyclo[2.2.1]heptan-7-yl)-3,7-dihydro-4H-pyrrolo[2,3-d]pyrimidin-4-one], the IC50 against SHP2 was found to be 5 nM; in assay [1], 100 nM.

Consider `CN[C@@H]1C[C@@H]2CC[C@H]1N2c1nc2[nH]cc(-c3ccc4nc(C)sc4c3Cl)c2c(=O)n1C` [Example 107, 5-(7-chloro-2-methylbenzo[d]thiazol-6-yl)-3-methyl-2-((1R,2R,4S)-2-(methylamino)-7-azabicyclo[2.2.1]heptan-7-yl)-3,7-dihydro-4H-pyrrolo[2,3-d]pyrimidin-4-one], for which the IC50 on SHP2 was found to be 7 nM; in assay [1], 270 nM.

For the molecule `Cn1c(N2C3CCCC2CNC3)nc2[nH]cc(-c3ccc4ncsc4c3Cl)c2c1=O` [Example 108, 2-(3,9-diazabicyclo[3.3.1]nonan-9-yl)-5-(7-chlorobenzo[d]thiazol-6-yl)-3-methyl-3,7-dihydro-4H-pyrrolo[2,3-d]pyrimidin-4-one], the figures for the concentration for half-maximal inhibition (IC50) (on SHP2; in assay [1]) were 4 nM and 90 nM, respectively.

For `CCn1nc2ccc(-c3c[nH]c4nc(N5[C@H]6CC[C@@H]5[C@H](N)C6)n(C)c(=O)c34)c(Cl)c2c1C(F)F` [Example 109, 2-((1R,2R,4S)-2-amino-7-azabicyclo[2.2.1]heptan-7-yl)-5-(4-chloro-3-(difluoromethyl)-2-ethyl-2H-indazol-5-yl)-3-methyl-3,7-dihydro-4H-pyrrolo[2,3-d]pyrimidin-4-one], the IC50 against SHP2 was found to be 6.5 nM; in assay [1], 120 nM.

With `CCn1nc2ccc(-c3c[nH]c4nc(N5[C@H]6CC[C@@H]5[C@H](N)C6)n(C)c(=O)c34)c(Cl)c2c1CO` [Example 110, 2-((1R,2R,4S)-2-amino-7-azabicyclo[2.2.1]heptan-7-yl)-5-(4-chloro-2-ethyl-3-(hydroxymethyl)-2H-indazol-5-yl)-3-methyl-3,7-dihydro-4H-pyrrolo[2,3-d]pyrimidin-4-one], the concentration for half-maximal inhibition (IC50) came to 14 nM against SHP2 and 1700 nM in assay [1].

Regarding `CCn1cc2c(Cl)c(-c3n[nH]c4nc(N5C6CCCC5CNC6)n(C)c(=O)c34)ccc2n1` [Example 111, 6-(3,9-diazabicyclo[3.3.1]nonan-9-yl)-3-(4-chloro-2-ethyl-2H-indazol-5-yl)-5-methyl-1,5-dihydro-4H-pyrazolo[3,4-d]pyrimidin-4-one], the half-maximal inhibitory concentration (IC50) came out at 26 nM at SHP2 and 410 nM in assay [1].

Take `CCn1cc2c(Cl)c(-c3n[nH]c4nc(N5[C@H]6CC[C@@H]5[C@H](N)C6)n(C)c(=O)c34)ccc2n1` [Example 112, 6-((1R,2R,4S)-2-amino-7-azabicyclo[2.2.1]heptan-7-yl)-3-(4-chloro-2-ethyl-2H-indazol-5-yl)-5-methyl-1,5-dihydro-4H-pyrazolo[3,4-d]pyrimidin-4-one]: the IC50 was found to be 13 nM against SHP2 and 260 nM in assay [1].

For the molecule `Cc1nc2ccc(-c3n[nH]c4nc(N5[C@H]6CC[C@@H]5[C@H](N)C6)n(C)c(=O)c34)c(Cl)c2s1` [Example 113, 6-((1R,2R,4S)-2-amino-7-azabicyclo[2.2.1]heptan-7-yl)-3-(7-chloro-2-methylbenzo[d]thiazol-6-yl)-5-methyl-1,5-dihydro-4H-pyrazolo[3,4-d]pyrimidin-4-one], the IC50 against SHP2 was determined as 4.5 nM; in assay [1], 78 nM.

Regarding `Cn1nc2ccc(-c3n[nH]c4nc(N5[C@H]6CC[C@@H]5[C@H](N)C6)n(C)c(=O)c34)c(Cl)c2c1Cl` [Example 114, 6-((1R,2R,4S)-2-amino-7-azabicyclo[2.2.1]heptan-7-yl)-3-(3,4-dichloro-2-methyl-2H-indazol-5-yl)-5-methyl-1,5-dihydro-4H-pyrazolo[3,4-d]pyrimidin-4-one], the IC50 turned out to be 5.5 nM at SHP2 and 73 nM in assay [1].

Turning to `CCn1cc2c(Cl)c(-c3n[nH]c4nc(N5[C@@H]6CC[C@H]5C[C@@](C)(N)C6)n(C)c(=O)c34)ccc2n1` [Example 115, 6-(endo-3-amino-3-methyl-8-azabicyclo[3.2.1]octan-8-yl)-3-(4-chloro-2-ethyl-2H-indazol-5-yl)-5-methyl-1,5-dihydro-4H-pyrazolo[3,4-d]pyrimidin-4-one], the IC50 was 46 nM on SHP2 and 490 nM in assay [1].

Take `Cn1nc2ccc(-c3n[nH]c4nc(N5C6CCCC5CNC6)n(C)c(=O)c34)c(Cl)c2c1Cl` [Example 116, 6-(3,9-diazabicyclo[3.3.1]nonan-9-yl)-3-(3,4-dichloro-2-methyl-2H-indazol-5-yl)-5-methyl-1,5-dihydro-4H-pyrazolo[3,4-d]pyrimidin-4-one]: the IC50 came to 9 nM on SHP2 and 100 nM in assay [1].

Regarding `Cn1cc2c(Cl)c(-c3n[nH]c4nc(N5C6CCCC5CNC6)n(C)c(=O)c34)ccc2n1` [Example 117, 6-(3,9-diazabicyclo[3.3.1]nonan-9-yl)-3-(4-chloro-2-methyl-2H-indazol-5-yl)-5-methyl-1,5-dihydro-4H-pyrazolo[3,4-d]pyrimidin-4-one], the figures for the IC50 (against SHP2; in assay [1]) were 25 nM and 640 nM, respectively.

In the case of `CCn1cc2c(Cl)c(-c3n[nH]c4nc(N5[C@H]6CC[C@@H]5[C@H](NC)C6)n(C)c(=O)c34)ccc2n1` [Example 118, 3-(4-chloro-2-ethyl-2H-indazol-5-yl)-5-methyl-6-((1R,2R,4S)-2-(methylamino)-7-azabicyclo[2.2.1]heptan-7-yl)-1,5-dihydro-4H-pyrazolo[3,4-d]pyrimidin-4-one], the 50% inhibitory concentration (IC50) came out at 49 nM against SHP2 and 1100 nM in assay [1].

As for `CN[C@@H]1C[C@@H]2CC[C@H]1N2c1nc2[nH]nc(-c3ccc4nn(C)c(Cl)c4c3Cl)c2c(=O)n1C` [Example 119, 3-(3,4-dichloro-2-methyl-2H-indazol-5-yl)-5-methyl-6-((1R,2R,4S)-2-(methylamino)-7-azabicyclo[2.2.1]heptan-7-yl)-1,5-dihydro-4H-pyrazolo[3,4-d]pyrimidin-4-one], the results for the IC50 (against SHP2; in assay [1]) were 17 nM and 290 nM, respectively.

`CN[C@@H]1C[C@@H]2CC[C@H]1N2c1nc2[nH]nc(-c3ccc4nn(C)cc4c3Cl)c2c(=O)n1C` [Example 120, 3-(4-chloro-2-methyl-2H-indazol-5-yl)-5-methyl-6-((1R,2R,4S)-2-(methylamino)-7-azabicyclo[2.2.1]heptan-7-yl)-1,5-dihydro-4H-pyrazolo[3,4-d]pyrimidin-4-one]: the IC50 against SHP2 came out at 29 nM; in assay [1] it was 550 nM.

Take `CN[C@@H]1C[C@@H]2CC[C@H]1N2c1nc2[nH]nc(-c3ccc4nn(C)c(Cl)c4c3F)c2c(=O)n1C` [Example 121, 3-(3-chloro-4-fluoro-2-methyl-2H-indazol-5-yl)-5-methyl-6-((1R,2R,4S)-2-(methylamino)-7-azabicyclo[2.2.1]heptan-7-yl)-1,5-dihydro-4H-pyrazolo[3,4-d]pyrimidin-4-one]: the results for the IC50 (on SHP2; in assay [1]) were 16 nM and 210 nM, respectively.

As for `Cn1c(N2C3CCCC2CNC3)nc2[nH]nc(-c3ccc4ncsc4c3Cl)c2c1=O` [Example 122, 6-(3,9-diazabicyclo[3.3.1]nonan-9-yl)-3-(7-chlorobenzo[d]thiazol-6-yl)-5-methyl-1,5-dihydro-4H-pyrazolo[3,4-d]pyrimidin-4-one], the IC50 at SHP2 is 8 nM; in assay [1] it was 140 nM.

Usually IC50 stands for the concentration that gives 50% inhibition.
